Experimental data: patent publication US6087119A, “Method for determining the catalytic activity of factor IXa” (Roche Diagnostics GmbH, priority 1996, dated 2000)

How the values were obtained:
native FIXa (human) = native FIXa (human) (Homo sapiens, UniProt P00740); assay: Determination of the dissociation constant Ki according to DIXON, native FIXa; type: biochemical; design: 0.14 μmol/l native FIXa (human); settings: pH 8.5, 33% ethylene glycol; for 1/V: 0.07 μmol/l native FIXa
Description: Determination of the Dissociation Constant Ki According to the Method of DIXON
42 mmol/l Tris-HCl, pH 8.5
inhibitor in stepped concentrations (0, 20.4 and 40.8 μmol/l) […]
0.07 μmol/l native FIXa (human)
TIPPS-(3-Am)Phe-iNip-OH was used as the inhibitor and the inhibitory effect was determined as an example for two substrates under optimal conditions (pH 8.5, 33% ethylene glycol).

rFIXa (human) = rFIXa (human) (Homo sapiens, UniProt P00740); assay: Influence of known protease inhibitors on the activity of rFIXa; type: biochemical; design: coding for the FIX protease domain from amino acid position 181 to 415; Met (ATG start codon) (N); made in house
Sequence of rFIXa (human) (P00740 227-461 limits assumed): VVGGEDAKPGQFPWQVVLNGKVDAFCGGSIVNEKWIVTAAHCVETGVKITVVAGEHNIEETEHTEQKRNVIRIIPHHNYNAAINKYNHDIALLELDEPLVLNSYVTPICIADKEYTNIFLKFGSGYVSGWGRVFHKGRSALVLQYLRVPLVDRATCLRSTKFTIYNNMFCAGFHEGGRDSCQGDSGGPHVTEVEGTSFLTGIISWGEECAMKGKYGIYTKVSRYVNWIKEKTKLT
Sequence of rFIXa (human) (P00740 131-226 limits assumed): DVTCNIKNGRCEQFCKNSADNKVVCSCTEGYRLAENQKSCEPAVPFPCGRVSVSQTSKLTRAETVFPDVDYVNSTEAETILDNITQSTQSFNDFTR
Description: Specific FIXa inhibitors can be identified by the inhibition of FIXa activity. For this purpose the FIXa activity is determined with a substrate of the R-D-Xxx-Gly-Arg-pNA type (Xxx=hydrophobic amino acid) in the absence and presence of the substance to be tested or of a substance mixture and the percentage inhibition is calculated from the quotients. The inhibition constant Ki is determined from the inhibition kinetics. The measurement signal is amplified by the presence of high concentrations of certain alcohols (preferably ethylene glycol).
200 μl buffer (100 mmol/l Tris-HCl, 100 mmol/l NaCl, 5 mmol/l CaCl2, 20-40% alcohol, pH 7-9) the buffer contains the inhibitor at various concentrations […]
The reaction can also be terminated after 5-10 min by stopping with acetic acid (25 μl, 50%), the absorbance is determined at 405 nm against a reagent blank.
Influence of Known Protease Inhibitors on the Activity of rFIXa Using Different pHs, Alcohols and Alcohol Concentrations 42 mmol/l Tris-HCl, pH 7.4 or 8.5 substrate MeSO2 -D-CHG-Gly-Arg-pNA (1.02 mmol/l) […]
inhibitor at stepped concentrations (4.1-163 μmol/l)
Known synthetic inhibitors of the 3-amidinophenylalanine type were used as inhibitors (Sturzebecher et al, J. Enzyme. Inhibition 9 (1995) 87 and WO 92/08709) (1991)). The inhibitory effect was examined at a low and at a high alcohol concentration as an example.

Sequence of native FIXa (human) (P00740 227-461 limits assumed): as the sequence (P00740 227-461 limits assumed) above
Sequence of native FIXa (human) (P00740 47-191 partner limits assumed): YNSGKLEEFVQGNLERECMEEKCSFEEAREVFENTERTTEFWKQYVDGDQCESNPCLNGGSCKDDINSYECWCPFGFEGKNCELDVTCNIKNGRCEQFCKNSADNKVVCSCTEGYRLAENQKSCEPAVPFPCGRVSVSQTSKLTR

SMILES: CC(C)c1cc(C(C)C)c(S(=O)(=O)NC(Cc2cccc(C(=N)N)c2)C(=O)N2CCC(C(=O)O)CC2)c(C(C)C)c1 (stereo not shown) [TIPPS-(3-Am)Phe-iNip-OH, Nα-(2,4,6-triisopropylbenzenesulfonyl)-3-amidino-(D,L)-phenylalanine-isonipecotic acid]
- 1/V (native FIXa (human); inhibitor 20.4 μmol/l, MeSO2-D-HHT-Gly-Arg-pNA 0.25 μmol/l): 129 min/mA
- 1/V (native FIXa (human); inhibitor 20.4 μmol/l, MeSO2-D-HHT-Gly-Arg-pNA 0.51 μmol/l): 77.5 min/mA
- 1/V (native FIXa (human); inhibitor 20.4 μmol/l, MeSO2-D-HHT-Gly-Arg-pNA 1.02 μmol/l): 29.5 min/mA
- 1/V (native FIXa (human); inhibitor 40.8 μmol/l, MeSO2-D-HHT-Gly-Arg-pNA 0.25 μmol/l): 255 min/mA
- 1/V (native FIXa (human); inhibitor 40.8 μmol/l, MeSO2-D-HHT-Gly-Arg-pNA 0.51 μmol/l): 154 min/mA
- 1/V (native FIXa (human); inhibitor 40.8 μmol/l, MeSO2-D-HHT-Gly-Arg-pNA 1.02 μmol/l): 53.2 min/mA
- Ki (native FIXa (human); native FIXa, substrate MeSO2-D-HHT-Gly-Arg-pNA): 9 µM
- Inhibition of the activity of factor IXa (in %) (rFIXa (human); inhibitor 4.1 μmol/l, pH 7.4, 4.1% ethanol, 0.57 μmol/l rFIXa): 89.5%
- Inhibition of the activity of factor IXa (in %) (rFIXa (human); inhibitor 4.1 μmol/l, pH 7.4, 33% ethylene glycol, 0.057 μmol/l rFIXa): 86.9%
- Inhibition of the activity of factor IXa (in %) (rFIXa (human); inhibitor 4.1 μmol/l, pH 8.5, 4.1% ethanol, […] rFIXa): 90.6%
- Inhibition of the activity of factor IXa (in %) (rFIXa (human); inhibitor 4.1 μmol/l, pH 8.5, 33% ethylene glycol, […] rFIXa): 85.6%
- Inhibition of the activity of factor IXa (in %) (rFIXa (human); inhibitor 8.2 μmol/l, pH 7.4, 4.1% ethanol, 0.57 μmol/l rFIXa): 87.6%
- Inhibition of the activity of factor IXa (in %) (rFIXa (human); inhibitor 8.2 μmol/l, pH 7.4, 33% ethylene glycol, 0.057 μmol/l rFIXa): 79.4%
- Inhibition of the activity of factor IXa (in %) (rFIXa (human); inhibitor 8.2 μmol/l, pH 8.5, 4.1% ethanol, […] rFIXa): 85.2%
- Inhibition of the activity of factor IXa (in %) (rFIXa (human); inhibitor 8.2 μmol/l, pH 8.5, 33% ethylene glycol, […] rFIXa): 72.8%
- Inhibition of the activity of factor IXa (in %) (rFIXa (human); inhibitor 16.3 μmol/l, pH 7.4, 4.1% ethanol, 0.57 μmol/l rFIXa): 76.2%
- Inhibition of the activity of factor IXa (in %) (rFIXa (human); inhibitor 16.3 μmol/l, pH 7.4, 33% ethylene glycol, 0.057 μmol/l rFIXa): 61.7%
- Inhibition of the activity of factor IXa (in %) (rFIXa (human); inhibitor 16.3 μmol/l, pH 8.5, 4.1% ethanol, […] rFIXa): 74.8%
- Inhibition of the activity of factor IXa (in %) (rFIXa (human); inhibitor 16.3 μmol/l, pH 8.5, 33% ethylene glycol, […] rFIXa): 58.0%
- Inhibition of the activity of factor IXa (in %) (rFIXa (human); inhibitor 40.8 μmol/l, pH 7.4, 4.1% ethanol, 0.57 μmol/l rFIXa): 55.8%
- Inhibition of the activity of factor IXa (in %) (rFIXa (human); inhibitor 40.8 μmol/l, pH 7.4, 33% ethylene glycol, 0.057 μmol/l rFIXa): 38.9%
- Inhibition of the activity of factor IXa (in %) (rFIXa (human); inhibitor 40.8 μmol/l, pH 8.5, 4.1% ethanol, […] rFIXa): 55.2%
- Inhibition of the activity of factor IXa (in %) (rFIXa (human); inhibitor 40.8 μmol/l, pH 8.5, 33% ethylene glycol, […] rFIXa): 33.6%
- Inhibition of the activity of factor IXa (in %) (rFIXa (human); inhibitor 81.6 μmol/l, pH 7.4, 4.1% ethanol, 0.57 μmol/l rFIXa): 36.3%
- Inhibition of the activity of factor IXa (in %) (rFIXa (human); inhibitor 81.6 μmol/l, pH 7.4, 33% ethylene glycol, 0.057 μmol/l rFIXa): 21.2%
- Inhibition of the activity of factor IXa (in %) (rFIXa (human); inhibitor 81.6 μmol/l, pH 8.5, 4.1% ethanol, […] rFIXa): 35.3%
- Inhibition of the activity of factor IXa (in %) (rFIXa (human); inhibitor 81.6 μmol/l, pH 8.5, 33% ethylene glycol, […] rFIXa): 20.7%
- Inhibition of the activity of factor IXa (in %) (rFIXa (human); inhibitor 163 μmol/l, pH 7.4, 4.1% ethanol, 0.57 μmol/l rFIXa): 23.8%
- Inhibition of the activity of factor IXa (in %) (rFIXa (human); inhibitor 163 μmol/l, pH 7.4, 33% ethylene glycol, 0.057 μmol/l rFIXa): 15.0%
- Inhibition of the activity of factor IXa (in %) (rFIXa (human); inhibitor 163 μmol/l, pH 8.5, 4.1% ethanol, […] rFIXa): 20.8%
- Inhibition of the activity of factor IXa (in %) (rFIXa (human); inhibitor 163 μmol/l, pH 8.5, 33% ethylene glycol, […] rFIXa): 15.8%
